# From ChEMBL document CHEMBL1155592, “New antibacterial metabolites from the cyanobacterium Nostoc commune(EAWAG 122b)” (2000)
# Tests used:
# [1] = system: Bacillus cereus; test: Antibacterial activity against Bacillus cereus ATCC 10702; format: functional
# [2] = system: Staphylococcus epidermidis; test: Antibacterial activity against Staphylococcus epidermidis ATCC 12228; format: functional
Structure (SMILES),MIC [1] [µg/mL],MIC [2] [µg/mL]
Cc1ccc(O)c2c1C(=O)c1cccc(O)c1C2=O,32,32
C[C@@H]1C[C@H](O)C2=C3[C@@H](C[C@@H]4C(C)(C)[C@H](O)CC[C@@]24C)Oc2ccc(C(=O)O)cc2C[C@@]31C,128,4
Cc1ccc(O)c2c1C(=O)CC2,64,128
O=C(N[C@H](CO)[C@H](O)c1ccc([N+](=O)[O-])cc1)C(Cl)Cl [CHLORAMPHENICOL],8,4
